In paper PMC9329436, “Optimization of the 4-anilinoquin(az)oline scaffold as epidermal growth factor receptor (EGFR) inhibitors for chordoma utilizing a toxicology profiling assay platform” (Scientific Reports, 2022):
Where two headings read alike, the source gives them in different places.

Experiments:
Format in all cases: biochemical
[1] = biological target: 320 wild-type protein kinases (Homo sapiens, UniProt P43250); conditions: singlicate
Source text: (§1) Table S4. Profiling of two compounds at two concentrations against 320 wild-type protein kinases; singlicate measurement; Residual activities (% of control).

[2] = biological target: 320 wild-type protein kinases (Homo sapiens, UniProt Q14680); conditions: MELK, singlicate
Sequence of 320 wild-type protein kinases (Homo sapiens, UniProt Q14680) (Q14680 whole entry): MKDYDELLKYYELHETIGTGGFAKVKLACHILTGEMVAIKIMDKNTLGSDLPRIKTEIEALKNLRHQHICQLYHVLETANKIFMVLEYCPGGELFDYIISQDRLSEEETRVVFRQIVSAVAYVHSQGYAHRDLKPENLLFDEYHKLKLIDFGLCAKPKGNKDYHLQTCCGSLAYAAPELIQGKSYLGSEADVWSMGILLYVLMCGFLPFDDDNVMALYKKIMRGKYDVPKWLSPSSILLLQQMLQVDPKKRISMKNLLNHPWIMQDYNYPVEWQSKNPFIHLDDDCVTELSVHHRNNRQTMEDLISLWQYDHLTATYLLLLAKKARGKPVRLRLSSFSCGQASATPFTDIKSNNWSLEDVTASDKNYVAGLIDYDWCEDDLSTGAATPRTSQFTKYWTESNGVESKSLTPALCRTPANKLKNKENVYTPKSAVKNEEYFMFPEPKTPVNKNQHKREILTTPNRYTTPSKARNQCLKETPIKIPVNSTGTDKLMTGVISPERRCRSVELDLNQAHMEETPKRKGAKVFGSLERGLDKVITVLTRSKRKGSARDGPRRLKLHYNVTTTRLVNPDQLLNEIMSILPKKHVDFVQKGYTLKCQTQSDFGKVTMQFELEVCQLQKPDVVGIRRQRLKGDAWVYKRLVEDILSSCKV
Source text: as §1

[3] = biological target: 320 wild-type protein kinases (Homo sapiens, UniProt Q8N568); conditions: singlicate
Sequence of 320 wild-type protein kinases (Homo sapiens, UniProt Q8N568) (Q8N568 whole entry): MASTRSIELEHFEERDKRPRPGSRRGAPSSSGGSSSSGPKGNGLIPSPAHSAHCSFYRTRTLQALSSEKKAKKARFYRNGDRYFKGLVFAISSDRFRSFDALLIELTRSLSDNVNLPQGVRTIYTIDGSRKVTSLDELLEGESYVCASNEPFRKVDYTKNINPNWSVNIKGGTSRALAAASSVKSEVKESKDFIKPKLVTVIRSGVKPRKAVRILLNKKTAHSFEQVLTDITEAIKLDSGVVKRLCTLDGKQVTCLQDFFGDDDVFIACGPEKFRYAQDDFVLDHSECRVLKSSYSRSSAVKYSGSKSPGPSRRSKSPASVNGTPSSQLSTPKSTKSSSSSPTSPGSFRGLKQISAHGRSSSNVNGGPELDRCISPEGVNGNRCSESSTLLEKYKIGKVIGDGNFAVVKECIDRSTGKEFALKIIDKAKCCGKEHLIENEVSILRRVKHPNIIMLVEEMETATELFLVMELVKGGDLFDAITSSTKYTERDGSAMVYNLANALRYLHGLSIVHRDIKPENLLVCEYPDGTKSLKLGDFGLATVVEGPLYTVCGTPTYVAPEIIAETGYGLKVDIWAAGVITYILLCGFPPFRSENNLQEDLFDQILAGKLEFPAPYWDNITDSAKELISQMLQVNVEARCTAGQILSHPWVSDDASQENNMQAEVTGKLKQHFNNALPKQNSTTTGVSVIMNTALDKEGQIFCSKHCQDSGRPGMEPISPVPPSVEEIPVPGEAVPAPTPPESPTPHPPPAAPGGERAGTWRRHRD
Source text: as §1

[4] = biological target: T1, 320 wild-type protein kinases (Homo sapiens, UniProt P53778); conditions: p38-gamma, singlicate
T1 sequence (P53778 1-367): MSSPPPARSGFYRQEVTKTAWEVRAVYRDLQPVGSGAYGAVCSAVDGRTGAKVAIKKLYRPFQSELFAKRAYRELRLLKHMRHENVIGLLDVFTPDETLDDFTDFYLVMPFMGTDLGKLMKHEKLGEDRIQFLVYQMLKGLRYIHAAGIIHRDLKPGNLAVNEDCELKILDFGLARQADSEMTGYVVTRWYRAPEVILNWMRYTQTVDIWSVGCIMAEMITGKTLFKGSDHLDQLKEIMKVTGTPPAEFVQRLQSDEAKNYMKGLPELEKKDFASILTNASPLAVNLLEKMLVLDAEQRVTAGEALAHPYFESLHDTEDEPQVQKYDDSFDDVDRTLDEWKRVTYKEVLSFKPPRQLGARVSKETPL
Source text: as §1

[5] = biological target: 320 wild-type protein kinases (Homo sapiens, UniProt P08581); conditions: MET, singlicate
Sequence of 320 wild-type protein kinases (Homo sapiens, UniProt P08581) (P08581 25-1390): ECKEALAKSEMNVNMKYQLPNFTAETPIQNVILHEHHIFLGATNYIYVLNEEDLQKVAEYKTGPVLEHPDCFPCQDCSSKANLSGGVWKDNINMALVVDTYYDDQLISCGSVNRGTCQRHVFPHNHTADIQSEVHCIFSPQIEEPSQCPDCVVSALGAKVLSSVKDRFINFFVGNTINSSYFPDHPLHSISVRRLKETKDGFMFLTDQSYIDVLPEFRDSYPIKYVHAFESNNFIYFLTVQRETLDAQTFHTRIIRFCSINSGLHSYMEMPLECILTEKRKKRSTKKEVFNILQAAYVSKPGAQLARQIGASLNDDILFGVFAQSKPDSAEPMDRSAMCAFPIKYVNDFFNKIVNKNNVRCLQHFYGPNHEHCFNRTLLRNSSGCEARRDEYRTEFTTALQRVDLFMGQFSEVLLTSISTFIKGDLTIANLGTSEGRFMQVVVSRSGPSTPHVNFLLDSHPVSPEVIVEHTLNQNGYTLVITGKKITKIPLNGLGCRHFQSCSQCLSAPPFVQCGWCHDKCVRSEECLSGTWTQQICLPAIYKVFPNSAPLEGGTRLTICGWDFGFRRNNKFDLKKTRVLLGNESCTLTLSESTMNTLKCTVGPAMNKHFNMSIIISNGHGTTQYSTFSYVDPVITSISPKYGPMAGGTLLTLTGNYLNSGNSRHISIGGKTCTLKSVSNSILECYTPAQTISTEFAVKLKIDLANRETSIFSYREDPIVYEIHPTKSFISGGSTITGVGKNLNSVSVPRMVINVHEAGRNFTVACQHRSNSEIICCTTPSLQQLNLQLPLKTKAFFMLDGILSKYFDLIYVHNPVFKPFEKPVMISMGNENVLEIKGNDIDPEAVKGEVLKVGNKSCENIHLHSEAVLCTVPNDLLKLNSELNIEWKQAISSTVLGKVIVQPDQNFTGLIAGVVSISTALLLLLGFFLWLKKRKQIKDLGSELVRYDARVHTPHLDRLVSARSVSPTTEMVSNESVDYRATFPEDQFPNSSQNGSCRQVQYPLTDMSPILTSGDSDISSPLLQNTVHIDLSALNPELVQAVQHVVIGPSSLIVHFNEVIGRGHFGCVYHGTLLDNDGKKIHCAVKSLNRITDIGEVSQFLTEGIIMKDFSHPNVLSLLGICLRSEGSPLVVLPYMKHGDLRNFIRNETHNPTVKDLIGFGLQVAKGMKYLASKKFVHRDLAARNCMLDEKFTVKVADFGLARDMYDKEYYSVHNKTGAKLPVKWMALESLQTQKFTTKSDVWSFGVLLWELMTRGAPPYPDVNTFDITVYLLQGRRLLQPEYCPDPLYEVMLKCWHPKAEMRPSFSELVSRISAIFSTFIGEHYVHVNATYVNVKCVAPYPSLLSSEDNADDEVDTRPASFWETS
Source text: as §1

[6] = biological target: 320 wild-type protein kinases (Homo sapiens, UniProt Q00535); conditions: singlicate
Sequence of 320 wild-type protein kinases (Homo sapiens, UniProt Q00535) (Q00535 whole entry): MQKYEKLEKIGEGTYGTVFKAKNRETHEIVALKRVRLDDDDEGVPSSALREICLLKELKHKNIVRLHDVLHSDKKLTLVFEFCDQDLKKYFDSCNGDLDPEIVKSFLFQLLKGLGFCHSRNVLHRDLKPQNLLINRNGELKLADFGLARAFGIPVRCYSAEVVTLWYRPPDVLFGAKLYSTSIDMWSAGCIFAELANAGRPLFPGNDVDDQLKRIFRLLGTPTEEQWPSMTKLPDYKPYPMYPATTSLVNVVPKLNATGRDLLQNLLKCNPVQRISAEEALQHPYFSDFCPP
Source text: as §1

[7] = biological target: T2, 320 wild-type protein kinases (Homo sapiens, UniProt Q12866); conditions: MERTK, singlicate
T2 sequence (Q12866 21-999): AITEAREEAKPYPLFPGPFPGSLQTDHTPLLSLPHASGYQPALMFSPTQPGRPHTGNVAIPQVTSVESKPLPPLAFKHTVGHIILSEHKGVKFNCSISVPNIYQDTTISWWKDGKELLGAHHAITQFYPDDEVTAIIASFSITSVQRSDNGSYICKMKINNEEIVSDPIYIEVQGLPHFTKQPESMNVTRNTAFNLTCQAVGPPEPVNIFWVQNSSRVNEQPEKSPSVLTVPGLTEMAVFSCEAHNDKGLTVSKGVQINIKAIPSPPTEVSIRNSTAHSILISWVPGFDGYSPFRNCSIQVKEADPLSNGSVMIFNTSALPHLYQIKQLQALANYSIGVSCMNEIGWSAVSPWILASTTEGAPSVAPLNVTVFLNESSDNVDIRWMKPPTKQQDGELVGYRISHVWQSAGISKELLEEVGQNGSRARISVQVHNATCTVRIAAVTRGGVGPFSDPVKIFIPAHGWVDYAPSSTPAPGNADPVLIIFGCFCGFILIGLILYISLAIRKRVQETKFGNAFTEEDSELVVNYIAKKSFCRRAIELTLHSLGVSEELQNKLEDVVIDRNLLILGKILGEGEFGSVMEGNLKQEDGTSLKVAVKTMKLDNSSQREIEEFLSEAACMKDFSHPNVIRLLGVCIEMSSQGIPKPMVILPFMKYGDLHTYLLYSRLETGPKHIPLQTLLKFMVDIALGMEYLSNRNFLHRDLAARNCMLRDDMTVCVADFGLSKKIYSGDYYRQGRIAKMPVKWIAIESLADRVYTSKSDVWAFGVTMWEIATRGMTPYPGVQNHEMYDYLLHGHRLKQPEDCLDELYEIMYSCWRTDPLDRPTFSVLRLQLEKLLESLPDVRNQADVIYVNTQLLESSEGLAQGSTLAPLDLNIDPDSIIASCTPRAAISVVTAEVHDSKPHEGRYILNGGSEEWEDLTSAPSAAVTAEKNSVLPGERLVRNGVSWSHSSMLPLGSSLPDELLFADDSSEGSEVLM
Source text: as §1

[8] = biological target: T3, 320 wild-type protein kinases (Homo sapiens, UniProt Q8TF76); conditions: singlicate
T3 sequence (Q8TF76 1-798): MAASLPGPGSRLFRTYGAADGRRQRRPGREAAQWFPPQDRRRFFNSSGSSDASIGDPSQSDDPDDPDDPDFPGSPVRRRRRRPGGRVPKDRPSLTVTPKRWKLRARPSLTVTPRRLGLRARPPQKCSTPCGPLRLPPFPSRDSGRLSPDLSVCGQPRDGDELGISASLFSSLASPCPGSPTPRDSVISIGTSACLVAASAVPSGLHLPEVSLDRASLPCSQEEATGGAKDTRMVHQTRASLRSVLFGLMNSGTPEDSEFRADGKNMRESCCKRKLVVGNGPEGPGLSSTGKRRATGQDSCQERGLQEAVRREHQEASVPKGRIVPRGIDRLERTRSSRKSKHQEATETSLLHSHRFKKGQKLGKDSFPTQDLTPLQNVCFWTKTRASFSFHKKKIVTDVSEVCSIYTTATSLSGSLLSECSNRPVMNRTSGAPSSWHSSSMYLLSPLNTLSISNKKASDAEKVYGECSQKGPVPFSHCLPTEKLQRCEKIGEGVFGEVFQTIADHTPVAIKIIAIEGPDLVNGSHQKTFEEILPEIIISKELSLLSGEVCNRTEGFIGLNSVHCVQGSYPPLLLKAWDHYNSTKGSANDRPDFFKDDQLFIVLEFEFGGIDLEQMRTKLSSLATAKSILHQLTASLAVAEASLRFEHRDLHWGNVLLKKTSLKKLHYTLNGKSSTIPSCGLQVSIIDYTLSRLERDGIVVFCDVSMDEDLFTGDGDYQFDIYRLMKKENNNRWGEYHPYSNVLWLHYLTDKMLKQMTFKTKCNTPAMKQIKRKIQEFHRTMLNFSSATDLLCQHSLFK
Source text: as §1

[9] = biological target: 320 wild-type protein kinases (Homo sapiens, UniProt Q9HCP0); conditions: singlicate
Sequence of 320 wild-type protein kinases (Homo sapiens, UniProt Q9HCP0) (Q9HCP0 whole entry): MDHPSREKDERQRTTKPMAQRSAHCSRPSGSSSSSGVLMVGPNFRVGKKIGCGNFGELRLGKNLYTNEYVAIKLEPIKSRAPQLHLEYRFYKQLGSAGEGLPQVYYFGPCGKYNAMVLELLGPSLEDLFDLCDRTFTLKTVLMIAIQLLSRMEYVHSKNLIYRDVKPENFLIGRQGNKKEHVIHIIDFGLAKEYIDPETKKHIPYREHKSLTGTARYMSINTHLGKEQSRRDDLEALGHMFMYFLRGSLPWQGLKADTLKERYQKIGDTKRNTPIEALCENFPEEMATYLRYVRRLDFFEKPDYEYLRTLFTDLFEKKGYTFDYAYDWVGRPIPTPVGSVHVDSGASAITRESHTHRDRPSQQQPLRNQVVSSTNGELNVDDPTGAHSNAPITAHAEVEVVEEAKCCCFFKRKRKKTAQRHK
Source text: as §1

Sequence of 320 wild-type protein kinases (Homo sapiens, UniProt P43250) (P43250 whole entry): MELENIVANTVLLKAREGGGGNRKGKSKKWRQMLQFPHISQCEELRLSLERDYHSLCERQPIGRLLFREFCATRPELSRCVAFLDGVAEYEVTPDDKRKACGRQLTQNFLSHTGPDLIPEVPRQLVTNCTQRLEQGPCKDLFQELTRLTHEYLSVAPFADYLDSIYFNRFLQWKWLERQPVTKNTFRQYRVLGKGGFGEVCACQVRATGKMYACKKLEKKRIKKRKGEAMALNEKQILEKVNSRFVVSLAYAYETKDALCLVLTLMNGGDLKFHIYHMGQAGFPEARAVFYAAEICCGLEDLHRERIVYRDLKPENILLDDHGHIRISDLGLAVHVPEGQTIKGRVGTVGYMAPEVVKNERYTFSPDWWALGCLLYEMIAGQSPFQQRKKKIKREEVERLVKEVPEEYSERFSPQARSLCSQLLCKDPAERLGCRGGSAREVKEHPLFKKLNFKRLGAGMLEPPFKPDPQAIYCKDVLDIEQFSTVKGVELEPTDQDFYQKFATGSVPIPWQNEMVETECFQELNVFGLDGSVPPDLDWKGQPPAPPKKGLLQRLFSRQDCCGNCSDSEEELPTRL

Row | Compound | Residual activity ([1]; GRK6, 1.0E-06 M) | Residual activity ([1]; GRK6, 1.0E-07 M) | Residual activity ([2]; 1.0E-06 M) | Residual activity ([2]; 1.0E-07 M) | Residual activity ([3]; DCAMKL2, 1.0E-06 M) | Residual activity ([3]; DCAMKL2, 1.0E-07 M) | Residual activity ([4]; 1.0E-06 M) | Residual activity ([4]; 1.0E-07 M) | Residual activity ([5]; 1.0E-06 M) | Residual activity ([5]; 1.0E-07 M) | Residual activity ([6]; CDK5/p25NCK, 1.0E-06 M) | Residual activity ([6]; CDK5/p25NCK, 1.0E-07 M) | Residual activity ([6]; CDK5/p35NCK, 1.0E-06 M) | Residual activity ([6]; CDK5/p35NCK, 1.0E-07 M) | Residual activity ([7]; 1.0E-06 M) | Residual activity ([7]; 1.0E-07 M) | Residual activity ([8]; GSG2, 1.0E-06 M) | Residual activity ([8]; GSG2, 1.0E-07 M) | Residual activity ([9]; CK1-gamma1, 1.0E-06 M) | Residual activity ([9]; CK1-gamma1, 1.0E-07 M)
1 | C#Cc1cc(Nc2ncnc3cc(I)ccc23)ccc1Cl [Compound 41] | 120 % of control | 124 % of control | 92 % of control | 101 % of control | 90 % of control | 87 % of control | 78 % of control | 87 % of control | 89 % of control | 93 % of control | 100 % of control | 119 % of control | 86 % of control | 87 % of control | 102 % of control | 103 % of control | 112 % of control | 113 % of control | 123 % of control | 125 % of control
2 | C#Cc1cc(Nc2ncnc3cc(OC)c(OC)cc23)ccc1Cl [Compound 45] | 101 % of control | 133 % of control | 101 % of control | 109 % of control | 103 % of control | 97 % of control | 85 % of control | 90 % of control | 70 % of control | 99 % of control | 103 % of control | 98 % of control | 88 % of control | 88 % of control | 83 % of control | 97 % of control | 109 % of control | 115 % of control | 100 % of control | 112 % of control
